Data: patent US9708314B2, “Heterocyclic amide compound” (NISSAN CHEMICAL INDUSTRIES, LTD., priority 2013, dated 2017)

Legend:
Assay type in all cases: in vivo
[1] = system: Echinochloa crus-galli var. crus-galli; test: Test Example 4: herbicidal effect by application to foliage (diluvial soil, plastic box); conditions: for H: Application herbicide amount 320 g/ha; for H (Echinochloa crus-galli var. crus-galli) herbicidal effect grade: foliage application
Procedure, shortened: (§1)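 Seeds sown in sterilized diluvial soil, covered ~1.5 cm, grown 14 days in greenhouse at 25° C. to 30° C. Emulsion formulation diluted in water to set rate (g/ha) and sprayed onto stems and leaves. Effect scored visually 3 weeks later on 0–5 scale (5 = ≥90% herbicidal ratio, 0 = ≤5%).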

Chenopodium album = test: as above; conditions: for O: Application herbicide amount 320 g/ha; for O (Chenopodium album) herbicidal effect grade: foliage application
Procedure, shortened: as §1

Scirpus juncoides [2] = test: Test Example 1: herbicidal activity, application before weed generation in submerged conditions; conditions: Seventeenth Table
Procedure, shortened: (§2)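 Pre-emergence water-surface application under 4 cm flooding, same day as sowing, with rice transplanted at 2.5 leaf stage. Dose given as g/ha. Plants grown at 25° C. to 30° C. and rated three weeks later on a 0 (≤5%) to 5 (≥90%) herbicidal-ratio scale.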

Monochoria vaginalis [3] = test: as above; conditions: Seventeenth Table
Procedure, shortened: as §2

[4] = system: Echinochloa oryzacola Vasing.; test: as above; conditions: Seventeenth Table
Procedure, shortened: as §2

Triticum aestivum = test: Test Example 4: effect on crop by application to foliage (diluvial soil, plastic box); conditions: for e: Application herbicide amount 320 g/ha, effect on crop; for e (Triticum aestivum) effect on crop grade: foliage application
Procedure, shortened: as §1

Scirpus juncoides [5] = test: Test Example 2: herbicidal activity, application during weed generation in submerged conditions; conditions: Eighteenth Table
Procedure, shortened: (§3)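 Scored three weeks post-application on a 0–5 scale (5: ≥90% herbicidal ratio, almost withered; 0: ≤5%). Plants raised from mixed-sown seed in submerged alluvial soil (4 cm water), 25–30 °C greenhouse; water-diluted emulsion applied onto water surface at one- to two-leaf stage, dose in g/ha.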

Monochoria vaginalis [6] = test: as above; conditions: Eighteenth Table
Procedure, shortened: as §3

[7] = system: Echinochloa oryzacola Vasing.; test: as above; conditions: Eighteenth Table
Procedure, shortened: as §3

[8] = Application herbicide amount 320 g/ha
[9] = application herbicide amount 320 g/ha
[10] = Application herbicide amount 288 g/ha
[11] = application herbicide amount 288 g/ha
[12] = Application herbicide amount 192 g/ha
[13] = application herbicide amount 192 g/ha
[14] = application to foliage, 141 g/ha
[15] = Application herbicide amount 141 g/ha
[16] = application herbicide amount 141 g/ha

Cc1nnc(NC(=O)c2ccc(C(F)(F)F)n3c(N4CCOCC4)nnc23)o1 [1-096]
H [1]: 5 (Herbicidal ratio of 90% or more (almost completely withered))
O (Chenopodium album): 5 (Herbicidal ratio of 90% or more (almost completely withered))
B: Scirpus juncoides (herbicidal effect grade) (Scirpus juncoides [2]; [8]): 4 (Herbicidal ratio of 70% or more and less than 90%)
C: Monochoria vaginalis (herbicidal effect grade) (Monochoria vaginalis [3]; [8]): 4 (Herbicidal ratio of 70% or more and less than 90%)
A: Echinochloa oryzicola Vasing. (herbicidal effect grade) [4, 8]: 5 (Herbicidal ratio of 90% or more (almost completely withered))
e (Triticum aestivum): 1 (Herbicidal ratio of 5% or more and less than 20%)
B (Scirpus juncoides) herbicidal ratio grade (Scirpus juncoides [5]; [9]): 3 (Herbicidal ratio of 40% or more and less than 70%)
C (Monochoria vaginalis) herbicidal ratio grade (Monochoria vaginalis [6]; [9]): 4 (Herbicidal ratio of 70% or more and less than 90%)
A (Echinochloa oryzicola Vasing.) herbicidal ratio grade [7, 9]: 4 (Herbicidal ratio of 70% or more and less than 90%)

CC(C)c1nnc2c(C(=O)Nc3nnc(C(F)(F)F)o3)ccc(C(F)(F)F)n12 [1-100]
H [1]: 4 (Herbicidal ratio of 70% or more and less than 90%)
O (Chenopodium album): 5 (Herbicidal ratio of 90% or more (almost completely withered))
B: Scirpus juncoides (herbicidal effect grade) (Scirpus juncoides [2]; [8]): 3 (Herbicidal ratio of 40% or more and less than 70%)
C: Monochoria vaginalis (herbicidal effect grade) (Monochoria vaginalis [3]; [8]): 3 (Herbicidal ratio of 40% or more and less than 70%)
A: Echinochloa oryzicola Vasing. (herbicidal effect grade) [4, 8]: 4 (Herbicidal ratio of 70% or more and less than 90%)
e (Triticum aestivum): 0 (Herbicidal ratio of 5% or less (almost no effect))
B (Scirpus juncoides) herbicidal ratio grade (Scirpus juncoides [5]; [9]): 3 (Herbicidal ratio of 40% or more and less than 70%)
C (Monochoria vaginalis) herbicidal ratio grade (Monochoria vaginalis [6]; [9]): 4 (Herbicidal ratio of 70% or more and less than 90%)
A (Echinochloa oryzicola Vasing.) herbicidal ratio grade [7, 9]: 4 (Herbicidal ratio of 70% or more and less than 90%)

COc1cccc(Nc2nnc3c(C(=O)Nc4nnc(C)o4)ccc(C(F)(F)F)n23)n1 [1-102]
H [1]: 4 (Herbicidal ratio of 70% or more and less than 90%)
O (Chenopodium album): 5 (Herbicidal ratio of 90% or more (almost completely withered))
B: Scirpus juncoides (herbicidal effect grade) (Scirpus juncoides [2]; [8]): 2 (Herbicidal ratio of 20% or more and less than 40%)
C: Monochoria vaginalis (herbicidal effect grade) (Monochoria vaginalis [3]; [8]): 2 (Herbicidal ratio of 20% or more and less than 40%)
A: Echinochloa oryzicola Vasing. (herbicidal effect grade) [4, 8]: 3 (Herbicidal ratio of 40% or more and less than 70%)
e (Triticum aestivum): 0 (Herbicidal ratio of 5% or less (almost no effect))
B (Scirpus juncoides) herbicidal ratio grade (Scirpus juncoides [5]; [9]): 1 (Herbicidal ratio of 5% or more and less than 20%)
C (Monochoria vaginalis) herbicidal ratio grade (Monochoria vaginalis [6]; [9]): 1 (Herbicidal ratio of 5% or more and less than 20%)
A (Echinochloa oryzicola Vasing.) herbicidal ratio grade [7, 9]: 1 (Herbicidal ratio of 5% or more and less than 20%)

C=CCSc1nnc2c(C(=O)Nc3nnco3)ccc(C(F)(F)F)n12 [1-128]
H (Echinochloa crus-galli var. crus-galli) herbicidal effect grade [1, 10]: 5 (Herbicidal ratio of 90% or more (almost completely withered))
O (Chenopodium album) herbicidal effect grade (Chenopodium album; [10]): 5 (Herbicidal ratio of 90% or more (almost completely withered))
B: Scirpus juncoides (herbicidal effect grade) (Scirpus juncoides [2]; [10]): 4 (Herbicidal ratio of 70% or more and less than 90%)
C: Monochoria vaginalis (herbicidal effect grade) (Monochoria vaginalis [3]; [10]): 2 (Herbicidal ratio of 20% or more and less than 40%)
A: Echinochloa oryzicola Vasing. (herbicidal effect grade) [4, 10]: 5 (Herbicidal ratio of 90% or more (almost completely withered))
e (Triticum aestivum) effect on crop grade (Triticum aestivum; [10]): 1 (Herbicidal ratio of 5% or more and less than 20%)
B (Scirpus juncoides) herbicidal ratio grade (Scirpus juncoides [5]; [11]): 3 (Herbicidal ratio of 40% or more and less than 70%)
C (Monochoria vaginalis) herbicidal ratio grade (Monochoria vaginalis [6]; [11]): 0 (Herbicidal ratio of 5% or less (almost no effect))
A (Echinochloa oryzicola Vasing.) herbicidal ratio grade [7, 11]: 1 (Herbicidal ratio of 5% or more and less than 20%)

Cc1cc(C(=O)Nc2nnnn2C)c2nnc(C(C)C)n2c1C(F)(F)F [2-050]
H (Echinochloa crus-galli var. crus-galli) herbicidal effect grade ([1]; 192 g/ha): 3 (Herbicidal ratio of 40% or more and less than 70%)
O (Chenopodium album) herbicidal effect grade (Chenopodium album; 192 g/ha): 5 (Herbicidal ratio of 90% or more (almost completely withered))
B: Scirpus juncoides (herbicidal effect grade) (Scirpus juncoides [2]; [12]): 2 (Herbicidal ratio of 20% or more and less than 40%)
C: Monochoria vaginalis (herbicidal effect grade) (Monochoria vaginalis [3]; [12]): 3 (Herbicidal ratio of 40% or more and less than 70%)
A: Echinochloa oryzicola Vasing. (herbicidal effect grade) [4, 12]: 4 (Herbicidal ratio of 70% or more and less than 90%)
e (Triticum aestivum) effect on crop grade (Triticum aestivum; 192 g/ha): 0 (Herbicidal ratio of 5% or less (almost no effect))
B (Scirpus juncoides) herbicidal ratio grade (Scirpus juncoides [5]; [13]): 0 (Herbicidal ratio of 5% or less (almost no effect))
C (Monochoria vaginalis) herbicidal ratio grade (Monochoria vaginalis [6]; [13]): 2 (Herbicidal ratio of 20% or more and less than 40%)
A (Echinochloa oryzicola Vasing.) herbicidal ratio grade [7, 13]: 1 (Herbicidal ratio of 5% or more and less than 20%)

CCN(C)c1nnc2c(C(=O)Nc3nnnn3C)ccc(C(F)(F)F)n12 [2-088]
herbicidal effect, H (Echinochloa crus-galli var. crus-galli) [1, 14]: 5 (Herbicidal ratio of 90% or more (almost completely withered))
herbicidal effect, O (Chenopodium album) (Chenopodium album; [14]): 5 (Herbicidal ratio of 90% or more (almost completely withered))
B: Scirpus juncoides (herbicidal effect grade) (Scirpus juncoides [2]; [15]): 5 (Herbicidal ratio of 90% or more (almost completely withered))
C: Monochoria vaginalis (herbicidal effect grade) (Monochoria vaginalis [3]; [15]): 5 (Herbicidal ratio of 90% or more (almost completely withered))
A: Echinochloa oryzicola Vasing. (herbicidal effect grade) [4, 15]: 5 (Herbicidal ratio of 90% or more (almost completely withered))
effect on crop, e (Triticum aestivum) (Triticum aestivum; [14]): 0 (Herbicidal ratio of 5% or less (almost no effect))
B (Scirpus juncoides) herbicidal ratio grade (Scirpus juncoides [5]; [16]): 3 (Herbicidal ratio of 40% or more and less than 70%)
C (Monochoria vaginalis) herbicidal ratio grade (Monochoria vaginalis [6]; [16]): 4 (Herbicidal ratio of 70% or more and less than 90%)
A (Echinochloa oryzicola Vasing.) herbicidal ratio grade [7, 16]: 4 (Herbicidal ratio of 70% or more and less than 90%)
